{"source": "patent US7186714B2", "about": "“Imidazo[1,2-α]pyridine derivatives for the prophylaxis and treatment of herpes viral infections” (SmithKline Beecham Corporation, priority 2001, dated 2007)", "data": [{"tested_on": "HSV-1", "experiment": "HSV infection of Vero 76 cells, viral DNA detected by hybridization capture with chemiluminescence", "assay_type": "cell-based", "conditions": "Human alphaherpesvirus 1; HSV-1 in Vero 76 cells, MOI=0.001, incubated 40–48 hours with test compound", "protocol": "Vero 76 cells were maintained in MEM with Earle's salts, L-glutamine, 8% FBS (Hyclone, A-1111-L) and 100 units/mL Penicillin-100 μg/mL Streptomycin. For assay conditions, FBS was reduced to 2%. Cells are seeded into 96-well tissue culture plates at a density of 5×10^4 cells/well after being incubated for 45 min at 37° C. in the presence of HSV-1 or HSV-2 (MOI=0.001). Test compounds are added to the wells and the plates are incubated at 37° C. for 40–48 hours. Cell lysates are prepared as follows: media was removed and replaced with 150 μL/well 0.2 N NaOH with 1% Igepal CA 630 or NP-40. Plates were incubated up to 14 days at room temperature in a humidified chamber to prevent evaporation.\nFor the detection probe, a gel-purified, digoxigenin-labeled, 710-bp PCR fragment of the HSV UL-15 sequence was utilized. PCR conditions included 0.5 μM primers, 180 μM dTTP, 20 μM dUTP-digoxigenin (Boehringer Mannheim 1558706), 200 μM each of dATP, dCTP, and dGTP, 1×PCR Buffer II (Perkin Elmer), 2.5 mM MgCl2, 0.025 units/μL of AmpliTaq Gold polymerase (Perkin Elmer), and 5 ng of gel-purified HSV DNA per 100 μL Extension conditions were 10 min at 95° C., followed by 30 cycles of 95° C. for 1 min, 55° C. for 30 sec, and 72° C. for 2 min. The amplification was completed with a 10-min incubation at 72° C. Primers were selected to amplify a 728 bp probe spanning a section of the HSV1 UL15 open reading frame (nucleotides 249–977). Single-stranded transcripts were purified with Promega M13 Wizard kits. The final product was mixed 1:1 with a mixture of 6 M GuSCN, 100 mM EDTA and 200 μg/mL herring sperm DNA and stored at 4° C.\nThe capture DNA plasmid (HSV UL13 region in pUC) was linearized by cutting with XbaI, denatured for 15 min at 95° C. and diluted immediately into Reacti-Bind DNA Coating Solution (Pierce, 17250, diluted 1:1 with TE buffer, pH 8) at 1 ng/μL 75 μL/well were added to Corning (#3922 or 9690) white 96-well plates and incubated at room temperature for at least 4 hrs before washing twice with 300 μL/well 0.2×SSC/0.05% Tween-20 (SSC/T buffer). The plates were then incubated overnight at room temperature with 150 μL/well 0.2 N NaOH, 1% IGEPAL and 10 μg/mL herring sperm DNA.\nTwenty-seven (27) μL of cell lysate was combined with 45 μL of hybridization solution (final concentration: 3M GuSCN, 50 mM EDTA, 100 μg/ml salmon sperm DNA, 5×Denhardt's solution, 0.25×APE, and 5 ng of the digoxigenin-labeled detection probe). APE is 1.5 M NH4-acetate, 0.15 M ammonium phosphate monobasic, and 5 mM EDTA adjusted to pH 6.0. Mineral oil (50 μL) was added to prevent evaporation. The hybridization plates were incubated at 95° C. for 10 minutes to denature the DNA, then incubated at 42° C. overnight. The wells were washed 6× with 300 μL/well SSC/T buffer then incubated with 75 μL/well anti-digoxigenin-HRP-conjugated antibody (Boehringer Mannheim 1207733, 1:5000 in TE) for 30 min at room temperature. The wells were washed 6× with 300 μL/well with PBS/0.05% Tween-20 before 75 μL/well SuperSignal LBA substrate (Pierce) was added. The plates were incubated at room temperature for 30 minutes and chemiluminescence was measured in a Wallac Victor reader.", "units": {"IC50": "nM"}, "values": [{"smiles": "Nc1cccc(-c2nc3c(NC4CCCC4)cccn3c2-c2ccnc(NC3CCCC3)n2)c1", "note": "[Example 33, 2-(3-Aminophenyl)-N-cyclopentyl-3-[2-(cyclopentylamino)-4-pyrimidinyl]imidazo[1,2-α]pyridin-8-amine]", "IC50": 1600}, {"smiles": "c1cc(NCC2CC2)cc(-c2nc3c(NC4CCCC4)cccn3c2-c2ccnc(NC3CCCC3)n2)c1", "note": "[Example 34, N-Cyclopentyl-3-[2-(cyclopentylamino)-4-pyrimidinyl]-2-{3-[(cyclopropylmethyl)amino]phenyl}imidazo[1,2-α]pyridin-8-amine]", "IC50": 1500}, {"smiles": "c1cc(-c2nc3c(NC4CCCC4)cccn3c2-c2ccnc(NC3CCCC3)n2)cc(N(CC2CC2)CC2CC2)c1", "note": "[Example 35, 2-{3-[Bis(cyclopropylmethyl)amino]phenyl}-N-cyclopentyl-3-[2-(cyclopentylamino)-4-pyrimidinyl]imidazo[1,2-α]pyridin-8-amine]", "IC50": 1460}, {"smiles": "N#Cc1cccc(-c2nc3c(Cl)cccn3c2-c2ccnc(NC3CCCC3)n2)c1", "note": "[Example 36, 3-{8-Chloro-3-[2-(cyclopentylamino)-4-pyrimidinyl]imidazo[1,2-α]pyridin-2-yl}benzonitrile]", "IC50": 650}, {"smiles": "Fc1ccc(-c2nc3c(Cl)cc(Cl)cn3c2-c2ccnc(NC3CCCC3)n2)cc1", "note": "[Example 38, N-Cyclopentyl-4-[6,8-dichloro-2-(4-fluorophenyl)imidazo[1,2-α]pyridin-3-yl]-2-pyrimidinamine]", "IC50": 950}, {"smiles": "Fc1ccc(-c2nc3c(NC4CCCC4)cc(Cl)cn3c2-c2ccnc(NC3CCCC3)n2)cc1", "note": "[Example 39, N-{4-[6-Chloro-8-(cyclopentylamino)-2-(4-fluorophenyl)imidazo[1,2-α]pyridin-3-yl]-2-pyrimidinyl}-N-cyclopentylamine]", "IC50": 1400}, {"smiles": "Fc1ccc(-c2nc3c(Br)cc(Br)cn3c2-c2ccnc(NC3CCCC3)n2)cc1", "note": "[Example 40, N-Cyclopentyl-4-[6,8-dibromo-2-(4-fluorophenyl)imidazo[1,2-a]pyridin-3-yl]-2-pyrimidinamine]", "IC50": 790}, {"smiles": "Fc1ccc(-c2nc3c(NC4CCCC4)cc(Br)cn3c2-c2ccnc(NC3CCCC3)n2)cc1", "note": "[Example 41, N-{4-[6-Bromo-8-(cyclopentylamino)-2-(4-fluorophenyl)imidazo[1,2-a]pyridin-3-yl]-2-pyrimidinyl}-N-cyclopentylamine]", "IC50": 180}, {"smiles": "CCCCNc1cc(Br)cn2c(-c3ccnc(NC4CCCC4)n3)c(-c3ccc(F)cc3)nc12", "note": "[Example 42, 6-Bromo-N-butyl-3-[2-(cyclopentylamino)-4-pyrimidinyl]-2-(4-fluorophenyl)imidazo[1,2-a]pyridin-8-amine]", "IC50": 290}, {"smiles": "Fc1ccc(-c2nc3c(N4CCOCC4)cc(N4CCOCC4)cn3c2-c2ccnc(NC3CCCC3)n2)cc1", "note": "[Example 43, N-Cyclopentyl-4-[2-(4-fluorophenyl)-6,8-di(4-morpholinyl)imidazo[1,2-a]pyridin-3-yl]-2-pyrimidinamine]", "IC50": 470}, {"smiles": "Cc1cc(Br)cn2c(-c3ccnc(NC4CCCC4)n3)c(-c3ccc(F)cc3)nc12", "note": "[Example 44, N-{4-[6-Bromo-2-(4-fluorophenyl)-8-methylimidazo[1,2-a]pyridin-3-yl]-2-pyrimidinyl}-N-cyclopentylamine]", "IC50": 1200}, {"smiles": "Cc1cc(NC2CCCC2)cn2c(-c3ccnc(NC4CCCC4)n3)c(-c3ccc(F)cc3)nc12", "note": "[Example 45, N-Cyclopentyl-3-[2-(cyclopentylamino)-4-pyrimidinyl]-2-(4-fluorophenyl)-8-methylimidazo[1,2-a]pyridin-6-amine]", "IC50": 140}, {"smiles": "Cc1cccn2c(-c3ccnc(NC4CCCC4)n3)c(-c3ccc(F)cc3)nc12", "note": "[Example 46, N-Cyclopentyl-4-[2-(4-fluorophenyl)-8-methylimidazo[1,2-a]pyridin-3-yl]-2-pyrimidinamine]", "IC50": 1500}, {"smiles": "Fc1ccc(-c2nc3ccc(Br)cn3c2-c2ccnc(NC3CCCC3)n2)cc1", "note": "[Example 47, N-{4-[6-Bromo-2-(4-fluorophenyl)imidazo[1,2-a]pyridin-3-yl]-2-pyrimidinyl}-N-cyclopentylamine]", "IC50": 4000}, {"smiles": "Fc1ccc(-c2nc3ccc(NC4CCCC4)cn3c2-c2ccnc(NC3CCCC3)n2)cc1", "note": "[Example 48, N-Cyclopentyl-3-[2-(cyclopentylamino)-4-pyrimidinyl]-2-(4-fluorophenyl)imidazo[1,2-a]pyridin-6-amine]", "IC50": 2100}, {"smiles": "Fc1ccc(-c2nc3ccccn3c2-c2ccnc(NC3CCCC3)n2)cc1", "note": "[Example 49, N-Cyclopentyl-4-[2-(4-fluorophenyl)imidazo[1,2-a]pyridin-3-yl]-2-pyrimidinamine]", "IC50": 3300}, {"smiles": "Fc1ccc(-c2nc3ccc(N4CCOCC4)cn3c2-c2ccnc(NC3CCCC3)n2)cc1", "note": "[Example 50, N-Cyclopentyl-4-[2-(4-fluorophenyl)-6-(4-morpholinyl)imidazo[1,2-a]pyridin-3-yl]-2-pyrimidinamine]", "IC50": 180}, {"smiles": "Fc1ccc(-c2nc3c(NC4CC4)cccn3c2-c2ccnc(NC3CCCC3)n2)cc1", "note": "[Example 51, 3-[2-(cyclopentylamino)-4-pyrimidinyl]-N-cyclopropyl-2-(4-fluorophenyl)imidazo[1,2-a]pyridin-8-amine]", "IC50": 510}, {"smiles": "C=CCOc1ccc(-c2nc3c(NC4CCCC4)cccn3c2-c2ccnc(NC3CCCC3)n2)cc1", "note": "[Example 52, 2-[4-(Allyloxy)phenyl]-N-cyclopentyl-3-[2-(cyclopentylamino)-4-pyrimidinyl]imidazo[1,2-a]pyridin-8-amine]", "IC50": 620}, {"smiles": "c1cc(NC2CCCC2)c2nc(-c3ccc(OCC4CC4)cc3)c(-c3ccnc(NC4CCCC4)n3)n2c1", "note": "[Example 53, N-Cyclopentyl-3-[2-(cyclopentylamino)-4-pyrimidinyl]-2-[4-(cyclopropylmethoxy)phenyl]imidazo[1,2-a]pyridin-8-amine]", "IC50": 200}, {"smiles": "Fc1ccc(-c2nc3c(NC4CCCC4)cc(C(F)(F)F)cn3c2-c2ccnc(NC3CCCC3)n2)cc1", "note": "[Example 54, N-Cyclopentyl-3-[2-(cyclopentylamino)-4-pyrimidinyl]-2-(4-fluorophenyl)-6-(trifluoromethyl)imidazo[1,2-a]pyridin-8-amine]", "IC50": 840}, {"smiles": "O=C(O)c1cccc(-c2nc3c(NC4CCCC4)cccn3c2-c2ccnc(NC3CCCC3)n2)c1", "note": "[Example 55, 3-{8-(Cyclopentylamino)-3-[2-(cyclopentylamino)pyrimidin-4-yl]imidazo[1,2-a]pyridin-2-yl}benzoic acid]", "IC50": 7000}, {"smiles": "CCCCNc1cccn2c(-c3ccnc(NC4CCCC4)n3)c(-c3cccc(N=[N+]=[N-])c3)nc12", "note": "[Example 56, 2-(3-Azidophenyl)-N-butyl-3-[2-(cyclopentylamino)pyrimidin-4-yl]imidazo[1,2-a]pyridin-8-amine]", "IC50": 2900}, {"smiles": "Fc1ccc(-c2nc3c(OCc4ccccc4)cccn3c2-c2ccnc(NC3CCCC3)n2)cc1", "note": "[Example 57, 4-[8-(Benzyloxy)-2-(4-fluorophenyl)imidazo[1,2-a]pyridin-3-yl]-N-cyclopentylpyrimidin-2-amine]", "IC50": 970}, {"smiles": "Oc1cccn2c(-c3ccnc(NC4CCCC4)n3)c(-c3ccc(F)cc3)nc12", "note": "[Example 58]", "IC50": 200}]}]}
